In the supplement of paper PMC11061612:

Assays:
Test in all cases: Bliss excess, mean over the matrix (fraction); higher = more synergy
[1] = tested on: ES4 (Ewing's Sarcoma)
Method in brief: (§1)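 Bliss excess equals the observed combination effect minus the expected value EA + EB − EA·EB, where EA and EB are the effects of each agent alone. Combination Emax is the second-highest inhibition within the matrix. Inhibition was scaled from CellTiter-Glo 2.0 luminescence, with 0 set by vehicle wells and 1 by blank wells, after 72 hours of two-drug dosing of cells plated in 1536-well plates.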

[2] = tested on: LB831-BLC (Bladder Carcinoma)
Method in brief: as §1

[3] = tested on: SK-ES-1 (Ewing's Sarcoma)
Method in brief: as §1

[4] = tested on: KYSE-520 (Esophageal Squamous Cell Carcinoma)
Method in brief: as §1

[5] = tested on: HCC1806 (Breast Carcinoma)
Method in brief: as §1

[6] = tested on: MFE-296 (Endometrial Carcinoma)
Method in brief: as §1

[7] = tested on: SNU-5 (Gastric Carcinoma)
Method in brief: as §1

[8] = tested on: CCRF-CEM (T-Lymphoblastic Leukemia)
Method in brief: as §1

[9] = tested on: RO82-W-1 (Thyroid Gland Carcinoma)
Method in brief: as §1

[10] = tested on: KP-1N (Pancreatic Carcinoma)
Method in brief: as §1

[11] = tested on: HOS (Osteosarcoma)
Method in brief: as §1

[12] = tested on: OVCA420 (Ovarian Carcinoma)
Method in brief: as §1

[13] = tested on: HCC-78 (Lung Adenocarcinoma)
Method in brief: as §1

[14] = tested on: LU-135 (Small Cell Lung Carcinoma)
Method in brief: as §1

[15] = tested on: Hs-578-T (Breast Carcinoma)
Method in brief: as §1

[16] = tested on: T98G (Glioblastoma)
Method in brief: as §1

[17] = tested on: CAL-148 (Breast Carcinoma)
Method in brief: as §1

[18] = tested on: EC-GI-10 (Esophageal Squamous Cell Carcinoma)
Method in brief: as §1

[19] = tested on: B-CPAP (Thyroid Gland Carcinoma)
Method in brief: as §1

[20] = tested on: NCI-H82 (Small Cell Lung Carcinoma)
Method in brief: as §1

| Structure (SMILES) | Bliss excess [1] | Bliss excess [2] | Bliss excess [3] | Bliss excess [4] | Bliss excess [5] | Bliss excess [6] | Bliss excess [7] | Bliss excess [8] | Bliss excess [9] | Bliss excess [10] | Bliss excess [11] | Bliss excess [12] | Bliss excess [13] | Bliss excess [14] | Bliss excess [15] | Bliss excess [16] | Bliss excess [17] | Bliss excess [18] | Bliss excess [19] | Bliss excess [20] |
| --- | --- | --- | --- | --- | --- | --- | --- | --- | --- | --- | --- | --- | --- | --- | --- | --- | --- | --- | --- | --- |
| CN(CCO)CC[C@H](CSc1ccccc1)Nc1ccc(S(=O)(=O)NC(=O)c2ccc(N3CCC([C@@H](O)c4ccccc4-c4ccc(Cl)cc4)CC3)cc2)cc1S(=O)(=O)C(F)(F)F [AZD4320] + Cn1cnc2c(F)c(Nc3ccc(Br)cc3Cl)c(C(=O)NOCCO)cc21 [Selumetinib] (first compound max 1 µM, 7x7, partner max 3 µM) | 0.0074 | -0.0298 | -0.0095 | 0.0306 | 0.0605 | -0.0178 | 0.118 | 0.0099 | -0.0139 | -0.0277 | 0.0245 | 0.0225 | 0.0491 | 0.0266 | -0.0492 | 0.0206 | -0.0201 | 0.0802 | 0.0228 | -0.0009 |
| COc1nnc2ccc(N3CCC(c4ccc(OCCN5CCN(C)C(=O)[C@H]5C)cc4)CC3)nn12 [AZD5153] + C=CCn1c(=O)c2cnc(Nc3ccc(N4CCN(C)CC4)cc3)nc2n1-c1cccc(C(C)(C)O)n1 [AZD1775] (first compound max 1 µM, partner max 1 µM) | -0.0223 | -0.0157 | -0.0279 | -0.0399 | -0.0704 | -0.0541 | -0.0759 | -0.019 | 0.038 | 0.0464 | -0.0504 | -0.0589 | -0.055 | -0.004 | -0.0661 | -0.0092 | -0.0117 | -0.0813 | -0.0803 | -0.0656 |
| COc1nnc2ccc(N3CCC(c4ccc(OCCN5CCN(C)C(=O)[C@H]5C)cc4)CC3)nn12 [AZD5153] + CC1(C)CCC(CN2CCN(c3ccc(C(=O)NS(=O)(=O)c4ccc(NCC5CCOCC5)c([N+](=O)[O-])c4)c(Oc4cnc5[nH]ccc5c4)c3)CC2)=C(c2ccc(Cl)cc2)C1 [Venetoclax] (first compound max 1 µM, 7x7, partner max 1 µM) | -0.111 | -0.0627 | -0.0092 | -0.0444 | -0.0513 | -0.0824 | -0.0754 | -0.0742 | -0.0712 | -0.0714 | -0.0508 | -0.0527 | -0.0448 | -0.001 | -0.0614 | -0.0115 | -0.0682 | -0.118 | -0.0858 | -0.103 |
| COc1nnc2ccc(N3CCC(c4ccc(OCCN5CCN(C)C(=O)[C@H]5C)cc4)CC3)nn12 [AZD5153] + CCN(CCO)CCCOc1ccc2c(Nc3cc(CC(=O)Nc4cccc(F)c4)[nH]n3)ncnc2c1 [AZD2811] (first compound max 1 µM, 7x7, partner max 1 µM) | 0.0055 | -0.0647 | -0.0695 | -0.0709 | -0.042 | -0.0264 | -0.0501 | -0.0407 | -0.0483 | -0.0273 | -0.0093 | -0.0547 | -0.0314 | -0.0449 | -0.0345 | -0.014 | -0.0361 | -0.0142 | -0.0367 | -0.064 |
| COc1nnc2ccc(N3CCC(c4ccc(OCCN5CCN(C)C(=O)[C@H]5C)cc4)CC3)nn12 [AZD5153] + C[C@@H]1COCCN1C2=NC(=NC(=C2)C3(CC3)[S@](=N)(=O)C)C4=C5C=CNC5=NC=C4 [AZD6738] (first compound max 1 µM, 7x7, partner max 10 µM) | 0.0104 | 0.0393 | 0.0023 | -0.0009 | 0.0113 | 0.0129 | -0.0128 | -0.0178 | 0.0259 | 0.131 | -0.0413 | -0.0057 | -0.0235 | 0.0397 | -0.0231 | -0.0206 | 0.0315 | 0.0203 | 0.0219 | -0.0906 |
| COc1nnc2ccc(N3CCC(c4ccc(OCCN5CCN(C)C(=O)[C@H]5C)cc4)CC3)nn12 [AZD5153] + Cc1c2c(nn1C)CSCc1cc(n(C)n1)CSc1cc(c3ccccc3c1)OCCCc1c(C(=O)O)n(C)c3c-2c(Cl)ccc13 [AZD5991] (first compound max 1 µM, 7x7, partner max 1 µM) | -0.0665 | -0.0588 | 0.0048 | -0.0457 | -0.0137 | 0.028 | -0.0069 | -0.0035 | -0.0181 | -0.0176 | 0.0009 | -0.0933 | -0.0184 | 0.0517 | -0.0338 | 0.0021 | 0.0117 | 0.0527 | -0.0224 | -0.0659 |
| COc1nnc2ccc(N3CCC(c4ccc(OCCN5CCN(C)C(=O)[C@H]5C)cc4)CC3)nn12 [AZD5153] + Cn1cnc2c(F)c(Nc3ccc(Br)cc3Cl)c(C(=O)NOCCO)cc21 [Selumetinib] (first compound max 1 µM, 7x7, partner max 10 µM) | -0.0697 | -0.0446 | -0.0188 | 0.0018 | -0.0233 | -0.0519 | -0.0254 | -0.0015 | 0.038 | -0.0417 | 0.0429 | 0.0303 | 0.0035 | -0.0138 | -0.0344 | 0.0403 | 0.0129 | 0.0858 | -0.0435 | -0.0771 |
| Cc1c2c(nn1C)CSCc1cc(n(C)n1)CSc1cc(c3ccccc3c1)OCCCc1c(C(=O)O)n(C)c3c-2c(Cl)ccc13 [AZD5991] + C1CN(CCC1(C(=O)N[C@@H](CCO)C2=CC=C(C=C2)Cl)N)C3=NC=NC4=C3C=CN4 [Capivasertib] (first compound max 1 µM, 7x7, partner max 3 µM) | 0.0162 | 0.0133 | 0.0217 | -0.0068 | 0.0085 | 0.094 | 0.0135 | 0.0618 | -0.016 | 0.0154 | -0.0083 | 0.0186 | 0.0056 | -0.0112 | -0.0866 | -0.0178 | 0.0486 | 0.0589 | -0.0249 | -0.008 |
| Cc1c2c(nn1C)CSCc1cc(n(C)n1)CSc1cc(c3ccccc3c1)OCCCc1c(C(=O)O)n(C)c3c-2c(Cl)ccc13 [AZD5991] + C=CCn1c(=O)c2cnc(Nc3ccc(N4CCN(C)CC4)cc3)nc2n1-c1cccc(C(C)(C)O)n1 [AZD1775] (first compound max 1 µM, partner max 1 µM) | 0.0578 | -0.0044 | -0.0008 | 0.0434 | 0.0493 | -0.0025 | -0.0291 | -0.0011 | -0.0197 | -0.0696 | -0.0274 | -0.0002 | -0.0329 | -0.0654 | -0.0244 | -0.0198 | 0.0567 | 0.0389 | -0.053 | -0.0532 |
| Cc1c2c(nn1C)CSCc1cc(n(C)n1)CSc1cc(c3ccccc3c1)OCCCc1c(C(=O)O)n(C)c3c-2c(Cl)ccc13 [AZD5991] + CC1(C)CCC(CN2CCN(c3ccc(C(=O)NS(=O)(=O)c4ccc(NCC5CCOCC5)c([N+](=O)[O-])c4)c(Oc4cnc5[nH]ccc5c4)c3)CC2)=C(c2ccc(Cl)cc2)C1 [Venetoclax] (first compound max 1 µM, 7x7, partner max 1 µM) | -0.0286 | -0.0229 | 0.167 | -0.0306 | -0.0299 | -0.002 | -0.0127 | 0.0935 | -0.0523 | -0.0262 | 0.0413 | -0.0045 | -0.0245 | 0.0178 | -0.0513 | 0.0004 | -0.0177 | -0.0024 | -0.0306 | -0.036 |
| Cc1c2c(nn1C)CSCc1cc(n(C)n1)CSc1cc(c3ccccc3c1)OCCCc1c(C(=O)O)n(C)c3c-2c(Cl)ccc13 [AZD5991] + CCN(CCO)CCCOc1ccc2c(Nc3cc(CC(=O)Nc4cccc(F)c4)[nH]n3)ncnc2c1 [AZD2811] (first compound max 1 µM, 7x7, partner max 1 µM) | 0.0003 | 0.0076 | 0.0028 | -0.0272 | 0.0297 | 0.0533 | 0.0306 | -0.0343 | -0.0642 | -0.0662 | 0.007 | -0.0245 | 0.0209 | 0.0109 | 0.0487 | -0.0339 | 0.0597 | 0.156 | 0.0082 | 0.103 |
| Cc1c2c(nn1C)CSCc1cc(n(C)n1)CSc1cc(c3ccccc3c1)OCCCc1c(C(=O)O)n(C)c3c-2c(Cl)ccc13 [AZD5991] + CN(C)CCCOc1ccc(-c2ccc3ncc4c(c3c2)n(C2CCOCC2)c(=O)n4C)cn1 [AZD0156] (first compound max 1 µM, 7x7, partner max 1 µM) | 0.0042 | 0.0072 | -0.004 | 0.0045 | 0.0346 | 0.0092 | 0.0154 | 0.0467 | 0.0257 | -0.0132 | -0.0026 | -0.0333 | -0.0059 | -0.0413 | 0.0816 | 0.008 | 0.0528 | 0.0487 | 0.0094 | -0.0207 |
